Source: patent publication US20260216131A1, “METHODS OF TREATING BREAST HYPERPLASIA USING TEZACAFTOR” (Jiangsu Bioscene Pharmaceutical Co., Ltd., priority 2023, published 2026)
“And” between values parts separate entries of the source, which are not always exact repeats. Identical values can stand only once. “Also recorded” adds a separate entry of the source.

What was measured:
Assay type in all cases: in vivo
[1] = tested on: rat model of breast hyperplasia; assay: Nipple diameter and height in rat model of breast hyperplasia; settings: for Nipple Height / Nipple Diameter: female SD rats, gavage, tezacaftor 40 mg/kg/day, tamoxifen 4 mg/kg/day; for Nipple Diameter: in mm (unit assumed); for Change in nipple diameter compared with the model group / Change in nipple height compared with the model group: after 30 days of administration, result in words
Text: (§1) Study Design: Thirty-two female SD rats, aged 7-8 weeks and weighing 200-250 g, were used. The rats were randomly divided into four groups: a normal control group, a model group, a tezacaftor treatment group (hereinafter referred to as the “treatment group”), and a tamoxifen treatment group (hereinafter referred to as the “positive control group”).
(§2) Before administration of the test drugs, breast hyperplasia was induced in the rats of the model group, the treatment group, and the positive control group. Specifically, estradiol benzoate injection was intramuscularly administered to the inner thigh of each rat at a dose of 0.5 mg/kg/day for 25 consecutive days. Starting on day 26, progesterone injection was intramuscularly administered to the inner thigh at a dose of 5 mg/kg/day for 5 consecutive days. The total modeling period was 30 days.
(§3) Normal control group: Normal saline in an equal volume was intramuscularly administered to the inner side of the hind limb of each rat once daily for 30 consecutive days, with the left and right hind limbs injected alternately. Beginning on day 31, normal saline was administered by gavage for 30 days.
(§4) Model group: Beginning on day 31, the vehicle was administered by gavage for 30 consecutive days. Samples were collected 0.5 hour after the last administration.
(§5) Treatment group: Beginning on day 31, tezacaftor was administered by gavage at a dose of 40 mg/kg/day for 30 consecutive days. Samples were collected 0.5 hour after the last administration.
(§6) Positive control group: Beginning on day 31, tamoxifen was administered by gavage at a dose of 4 mg/kg/day for 30 consecutive days. Samples were collected 0.5 hour after the last administration.
Evaluation indices: (1) nipple diameter and height; (2) ovarian index and uterine index; (3) changes in serum E2 and PROG levels; and (4) the number of mammary lobular acini, the acinar lumen diameter, and the duct diameter in rats. […]

[2] = tested on: rat model of breast hyperplasia; assay: Ovarian index and uterine index in rat model of breast hyperplasia; settings: after 30 days of administration; for Ovarian index (ovary weight/body weight) / Uterine index (uterine weight/body weight): gavage, tezacaftor 40 mg/kg/day, tamoxifen 4 mg/kg/day; for Change in ovarian index compared with the model group / Change in uterine index compared with the model group: result in words
Text: as §1, §2, §3, §4, §5, §6
(§7) Evaluation indices: (1) nipple diameter and height; (2) ovarian index and uterine index; (3) changes in serum E2 and PROG levels; and (4) the number of mammary lobular acini, the acinar lumen diameter, and the duct diameter in rats.
In the study of Embodiment 1, after 30 days of administration, the uterus weight, ovary weight, and body weight of the rats were measured. The uterine index was calculated as uterine weight/body weight, and the ovarian index was calculated as ovary weight/body weight. A comparison of the ovarian index and uterine index among the different groups is shown in FIG. 2, and the corresponding data are presented in Table 3.

[3] = tested on: rat model of breast hyperplasia; assay: Serum E2 and PROG levels in rat model of breast hyperplasia; settings: after 30 days of administration; assay kit; result in words
Text: as §1, §2, §3, §4, §5, §6, §7
In the study of Embodiment 1, after 30 days of administration, serum E2 and PROG levels in rats of each group were measured using assay kits.

[4] = tested on: rat model of breast hyperplasia; assay: Histopathological evaluation (H&E) of mammary glands in rat model of breast hyperplasia; parameters: key to Histopathological Examination Score of mammary gland: Absence of a lesion was scored as 0; 1: very slight; 2: mild; 3: moderate; 4: severe; settings: after 30 days of administration; for Breast hyperplasia compared with the model group: H&E pathology, result in words; for Histopathological Examination Score of mammary gland: individual animals No. 1-8, H&E staining
Text: as §1, §2, §3, §4, §5, §6, §7
In the study of Embodiment 1, after 30 days of administration, mammary gland tissues from rats in each group were collected, dehydrated, embedded, and sectioned. The sections were subjected to H&E staining and pathological analysis.

[5] = Day 0 of treatment (baseline after modeling)

SMILES | Nipple Height [1, 5] | Nipple Diameter [1, 5] | Nipple Height ([1]; Day 15 of treatment) | Nipple Diameter ([1]; Day 15 of treatment) | Nipple Height ([1]; Day 30 of treatment) | Nipple Diameter ([1]; Day 30 of treatment) | Change in nipple diameter compared with the model group [1] | Change in nipple height compared with the model group [1] | Ovarian index (ovary weight/body weight) [2] | Uterine index (uterine weight/body weight) [2] | Change in ovarian index compared with the model group [2] | Change in uterine index compared with the model group [2] | Serum E2 level compared with the model group [3] | Serum PROG level compared with the model group [3] | Breast hyperplasia compared with the model group [4] | Histopathological Examination Score of mammary gland [4]
CC/C(=C(\c1ccccc1)c1ccc(OCCN(C)C)cc1)c1ccccc1 [tamoxifen] | 1.94 ± 0.16 mm | 1.63 ± 0.12 | 1.70 ± 0.17 mm | 1.28 ± 0.14 | 1.56 ± 0.12 mm | 1.11 ± 0.10 | decreases | decreases | 0.145 ± 0.052% | 0.050 ± 0.015 % | decreases | decreases | significantly decreased | significantly increased | alleviated | 0 and 1 (4×) and 2 (3×)
CC(C)(CO)c1cc2cc(NC(=O)C3(c4ccc5c(c4)OC(F)(F)O5)CC3)c(F)cc2n1C[C@@H](O)CO [tezacaftor] | 2.03 ± 0.12 mm | 1.63 ± 0.14 | 1.73 ± 0.21 mm | 1.24 ± 0.13 | 1.61 ± 0.13 mm | 1.12 ± 0.08 | significantly reduced; also recorded: decreases | significantly reduced; also recorded: decreases | 0.186 ± 0.088% | 0.055 ± 0.012 % | decreases | significantly reduced; also recorded: decreases | significantly decreased; also recorded: significantly improved | significantly increased; also recorded: significantly improved | alleviated; also recorded: alleviating breast hyperplasia | 1 (4×) and 2 (4×)
